The values below come from ChEMBL document CHEMBL5233273, “An overview of hydroxypyranone and hydroxypyridinone as privileged scaffolds for novel drug discovery” (Eur J Med Chem, 2021).

≈ marks a conversion by molar mass, not a printed value.

Usually IC50 stands for the concentration needed to halve the response being measured. A high value points to weaker potency in that assay. A word on the MIC: it is the lowest concentration that inhibits growth of the organism. Read a high MIC as weaker potency. The Ki is the equilibrium dissociation constant of an inhibitor or competing ligand from its target. Higher therefore signals lower affinity. Usually EC50 stands for the concentration needed to bring the measured effect to its halfway point. Low readings indicate a more potent agent, high ones a less potent agent.

Histamine H3 receptor, sequence (Q9Y5N1 whole entry): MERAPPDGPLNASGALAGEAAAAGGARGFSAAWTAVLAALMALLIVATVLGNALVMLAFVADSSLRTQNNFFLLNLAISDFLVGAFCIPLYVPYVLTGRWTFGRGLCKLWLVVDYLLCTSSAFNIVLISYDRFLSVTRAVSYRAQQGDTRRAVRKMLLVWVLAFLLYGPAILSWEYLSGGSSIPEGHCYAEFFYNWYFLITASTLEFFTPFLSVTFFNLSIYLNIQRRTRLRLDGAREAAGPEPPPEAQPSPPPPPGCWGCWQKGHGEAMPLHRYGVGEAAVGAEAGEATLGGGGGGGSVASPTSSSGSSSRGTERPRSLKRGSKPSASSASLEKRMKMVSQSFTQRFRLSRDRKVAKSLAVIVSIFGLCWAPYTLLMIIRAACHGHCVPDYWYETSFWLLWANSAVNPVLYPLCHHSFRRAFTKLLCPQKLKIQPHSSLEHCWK

The first test deals with DU-145. Put plainly: Cytotoxicity against human DU-145 cells. Type of test: functional, cell-based.
On to `CC(C)(C)[Si](C)(C)OCc1cc(=O)c(O)c(C(C[N+](=O)[O-])c2ccc(Br)cc2)o1` (stereo not given), for which half-maximal inhibition (IC50) was put at 13000 nM.
Regarding `CC(C)(C)[Si](C)(C)OCc1cc(=O)c(O)c(C(C[N+](=O)[O-])c2cccc(Cl)c2)o1` (stereo not given), the IC50 came out at 14000 nM.

The next test concerns Mycolicibacterium smegmatis. Put plainly: Antimycobacterial activity against Mycobacterium smegmatis. Type of test: functional.
As to `Cc1cc(=O)c(O)c(CN2CCCCC2C)o1` (stereo not given), the MIC turned out to be 8 µg/mL (≈ 33.7 µM).
`Cc1cc(=O)c(O)c(CN2CCCC(C)C2)o1` (stereo not given): 8 µg/mL (≈ 33.7 µM) was the least that counted as inhibitory (MIC).
In the case of `Cc1cc(=O)c(O)c(CN2CCC(Cc3ccccc3)CC2)o1`, the MIC is 8 µg/mL (≈ 25.5 µM).
Same read-out and setting: the value for `Cc1cc(=O)c(O)c(CN2CC(C)CC(C)C2)o1` (stereo not given) was 8 µg/mL (≈ 31.8 µM); that for `CCOC(=O)C1CCN(Cc2oc(C)cc(=O)c2O)CC1` was 8 µg/mL (≈ 27.1 µM); that for `Cc1cc(=O)c(O)c(CN2CCC(c3ccccn3)CC2)o1` was 8 µg/mL (≈ 26.6 µM).
The same measure, in the same setting: then `Cc1cc(=O)c(O)c(CN2CCCC(O)C2)o1` (stereo not given), with 8 µg/mL (≈ 33.4 µM); and `Cc1cc(=O)c(O)c(CN2CCCC(CO)C2)o1` (stereo not given), with 8 µg/mL (≈ 31.6 µM); and `Cc1cc(=O)c(O)c(CN2CCC(C)CC2)o1`, with 8 µg/mL (≈ 33.7 µM).
Molecule `Cc1cc(=O)c(O)c(CN2CCCCC2)o1` showed an MIC of 8 µg/mL (≈ 35.8 µM).
The same measure, in the same setting: the value for `CCCC1CCCCN1Cc1oc(C)cc(=O)c1O` (stereo not given) was 8 µg/mL (≈ 30.1 µM); that for `Cc1cc(=O)c(O)c(CN2CCC(c3ccc(O)cc3)CC2)o1` was 8 µg/mL (≈ 25.4 µM); that for `CCCC1CCN(Cc2oc(C)cc(=O)c2O)CC1` was 8 µg/mL (≈ 30.1 µM).
The same measure, in the same setting: then `Cc1cc(=O)c(O)c(CN2CCC(CO)CC2)o1`, with 8 µg/mL (≈ 31.6 µM); and `Cc1cc(=O)c(O)c(CN2CCC(N3CCOCC3)CC2)o1`, with 8 µg/mL (≈ 25.9 µM).
Still for that read-out and setting: then `Cc1cc(=O)c(O)c(CN2CCC(c3ccccc3)CC2)o1`, with 8 µg/mL (≈ 26.7 µM); and `Cc1cc(=O)c(O)c(CN2C(C)CCCC2C)o1` (stereo not given), with 8 µg/mL (≈ 31.8 µM).
Take `Cc1cc(=O)c(O)c(CN2CCC(O)CC2)o1`: the MIC worked out at 8 µg/mL (≈ 33.4 µM).
Still for that read-out and setting: then `CCC1CCC(C)N(Cc2oc(C)cc(=O)c2O)C1` (stereo not given), with 8 µg/mL (≈ 30.1 µM).

A further test relates to A549. Put plainly: Cytotoxicity against human A549 cells. Type of test: functional, cell-based.
`CC(C)(C)[Si](C)(C)OCc1cc(=O)c(O)c(C(C[N+](=O)[O-])c2ccc(Br)cc2)o1` (stereo not given) yielded an IC50 of 8000 nM. That is a single-digit micromolar value.
In the case of `CC(C)(C)[Si](C)(C)OCc1cc(=O)c(O)c(C(C[N+](=O)[O-])c2cccc(Cl)c2)o1` (stereo not given), the IC50 came out at 9000 nM.

Another test addresses Histamine H3 receptor (Homo sapiens, UniProt Q9Y5N1). Put plainly: Binding affinity to human H3R expressed in HEK293 cells membrane. Type of test: cell membranes.
`O=c1cc(CNCc2ccc(OCCCN3CCCCC3)cc2)occ1O` had a Ki of 31.6 nM.
Regarding `O=c1cc(CN(Cc2ccc(OCCCN3CCCCC3)cc2)Cc2cc(=O)c(O)co2)occ1O`, affinity was put at a Ki of 10 nM. Against the preceding molecule, the Ki is about 3.2-fold lower.

A further test deals with Mycobacterium avium. The test is described as follows: Antitubercular activity against Mycobacterium avium ATCC 15769. Type of test: functional.
`O=C(C1CCCCC1)N1CCN(Cc2oc(CCl)cc(=O)c2O)CC1`: the MIC worked out at 4 µg/mL (≈ 10.8 µM).

The next test concerns the target DNA gyrase (Escherichia coli, UniProt P0AES4+P0AES6). The test is described as follows: Inhibition of Escherichia coli DNA gyrase. Type of test: protein-complex assay.
For `Cc1[nH]c(C(=O)N[C@H]2CCc3nc(NC(=O)[C@@H](NC(=O)c4cc(=O)c(O)c[nH]4)C(C)C)sc3C2)c(Cl)c1Cl`, the IC50 is 640 nM.
On the same count and under the same terms, the value for `Cc1[nH]c(C(=O)N[C@H]2CCc3nc(NCc4cc(=O)c(O)co4)sc3C2)c(Cl)c1Cl` was 2100 nM.
Still for that read-out and setting: then `Cc1[nH]c(C(=O)N[C@H]2CCc3nc(NC(=O)CCNC(=O)c4cc(=O)c(O)c[nH]4)sc3C2)c(Cl)c1Cl`, with 350 nM; and `O=C(N[C@H]1CCc2nc(NCc3cc(=O)c(O)co3)sc2C1)c1cc(Br)c(Br)[nH]1`, with 180 nM; and `Cc1[nH]c(C(=O)N[C@H]2CCc3nc(NC(=O)[C@H](C)NC(=O)c4cc(=O)c(O)c[nH]4)sc3C2)c(Cl)c1Cl`, with 260 nM.

The subject of the next test is HeLa. Put plainly: Cytotoxicity against human HeLa cells. Type of test: functional, cell-based.
For the molecule `CC(C)(C)[Si](C)(C)OCc1cc(=O)c(O)c(C(C[N+](=O)[O-])c2cccc(Cl)c2)o1` (stereo not given), the concentration for half-maximal inhibition (IC50) is 10000 nM.

For a further test, the target named is T1, Tyrosinase (Agaricus bisporus) (UniProt O42713).
T1 sequence (whole entry): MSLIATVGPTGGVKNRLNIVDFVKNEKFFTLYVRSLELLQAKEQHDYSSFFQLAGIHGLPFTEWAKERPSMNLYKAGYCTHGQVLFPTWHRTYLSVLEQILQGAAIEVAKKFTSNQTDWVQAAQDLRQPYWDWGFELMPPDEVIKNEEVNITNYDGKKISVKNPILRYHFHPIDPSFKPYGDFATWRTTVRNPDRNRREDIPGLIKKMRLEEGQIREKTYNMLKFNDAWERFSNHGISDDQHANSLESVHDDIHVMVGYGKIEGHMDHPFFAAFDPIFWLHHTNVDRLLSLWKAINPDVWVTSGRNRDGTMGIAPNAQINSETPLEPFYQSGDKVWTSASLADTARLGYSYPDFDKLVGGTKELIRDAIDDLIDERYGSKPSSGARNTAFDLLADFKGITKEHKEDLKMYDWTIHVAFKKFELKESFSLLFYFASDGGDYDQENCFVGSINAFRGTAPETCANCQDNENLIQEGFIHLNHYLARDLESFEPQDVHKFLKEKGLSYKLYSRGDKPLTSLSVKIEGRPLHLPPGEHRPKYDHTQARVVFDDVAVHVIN
Put plainly: Potency index, ratio of kojic acid IC50 to test compound IC50 for inhibition of mushroom tyrosinase.
Consider `O=c1cc(CO)oc(CN2CCN(Cc3ccc(Cl)c(Cl)c3)CC2)c1O`, for which the Ratio IC50 turned out to be 5.
On to `O=c1cc(Cn2cc(COc3ccc4ccccc4c3)nn2)occ1O`, for which the Ratio IC50 stood at 155.
Same read-out and setting: then `O=c1cc(Cn2cc(COc3cccc4ccccc34)nn2)occ1O`, with 31.

Another test concerns the target T2, Tyrosinase (Agaricus bisporus, UniProt O42713).
T2 sequence (O42713 whole entry): T1 sequence (whole entry)
The test is described as follows: Inhibition of mushroom tyrosinase monophenolase activity.
With `CCCCCCCCn1cc(O)c(=O)cc1/C=N/OCC`, the IC50 is 1600 nM.
On to `CCCCCCCCn1cc(O)c(=O)cc1COC(=O)[C@@H](N)Cc1ccccc1`, for which inhibition was half-maximal at 12600 nM (IC50). Against the preceding molecule, the IC50 is about 7.9-fold higher.

For another test, the system named is HepG2. Put plainly: Cytotoxicity against human HepG2 cells. Type of test: functional, cell-based.
In turn, `O=c1cc(CN2CCCCC2)oc(CN2CCN(Cc3ccc(Br)c(F)c3)CC2)c1O` displayed a half-maximal inhibitory concentration (IC50) of 37200 nM.
In turn, `O=c1cc(CN2CCCC2)oc(CN2CCN(Cc3ccc(Br)c(F)c3)CC2)c1O` displayed an IC50 of 32700 nM.

The subject of a further test is Escherichia coli. Put plainly: Antibacterial activity against Escherichia coli. Type of test: functional.
On to `CCCC(=O)NC(CCCNC(=O)c1c(O)c(=O)ccn1CCO)(CCCNC(=O)c1c(O)c(=O)ccn1CCO)CCCNC(=O)c1c(O)c(=O)ccn1CCO`, for which the MIC is 8 µg/mL (≈ 9.81 µM).
Consider `CCCC(=O)NC(CCCNC(=O)c1c(O)c(=O)ccn1C)(CCCNC(=O)c1c(O)c(=O)ccn1C)CCCNC(=O)c1c(O)c(=O)ccn1C`, for which the MIC worked out at 8 µg/mL (≈ 11 µM).

Target in a further test: not listed separately
Put plainly: Inhibition of HIV-1 integrase. Details: species or system Human immunodeficiency virus 1.
`Cc1cc(=O)c(O)c(C(=O)NCc2ccc(Cl)cc2)o1` had an EC50 of 1950 nM and an IC50 of 1720 nM.

A further test has as its system Bacillus subtilis. Put plainly: Antibacterial activity against Bacillus subtilis. Type of test: functional.
In the case of `CCCC(=O)NC(CCCNC(=O)c1c(O)c(=O)ccn1CCO)(CCCNC(=O)c1c(O)c(=O)ccn1CCO)CCCNC(=O)c1c(O)c(=O)ccn1CCO`, the MIC worked out at 8 µg/mL (≈ 9.81 µM).
Consider `CCCC(=O)NC(CCCNC(=O)c1c(O)c(=O)ccn1C)(CCCNC(=O)c1c(O)c(=O)ccn1C)CCCNC(=O)c1c(O)c(=O)ccn1C`, for which the MIC turned out to be 8 µg/mL (≈ 11 µM).

The subject of the next test is Staphylococcus aureus. The test is described as follows: Antibacterial activity against Staphylococcus aureus. Type of test: functional.
As for `CCCC(=O)NC(CCCNC(=O)c1c(O)c(=O)ccn1CCO)(CCCNC(=O)c1c(O)c(=O)ccn1CCO)CCCNC(=O)c1c(O)c(=O)ccn1CCO`, the minimum inhibitory concentration (MIC) was found to be 8 µg/mL (≈ 9.81 µM).
For `CCCC(=O)NC(CCCNC(=O)c1c(O)c(=O)ccn1C)(CCCNC(=O)c1c(O)c(=O)ccn1C)CCCNC(=O)c1c(O)c(=O)ccn1C`, the MIC was 8 µg/mL (≈ 11 µM).

Another test concerns Pseudomonas aeruginosa. Put plainly: Antibacterial activity against Pseudomonas aeruginosa. Type of test: functional.
With `CCCC(=O)NC(CCCNC(=O)c1c(O)c(=O)ccn1CCO)(CCCNC(=O)c1c(O)c(=O)ccn1CCO)CCCNC(=O)c1c(O)c(=O)ccn1CCO`, the MIC amounted to 16 µg/mL (≈ 19.6 µM).
Same read-out and setting: the value for `CCCC(=O)NC(CCCNC(=O)c1c(O)c(=O)ccn1C)(CCCNC(=O)c1c(O)c(=O)ccn1C)CCCNC(=O)c1c(O)c(=O)ccn1C` was 16 µg/mL (≈ 22 µM).

In another test the target is T2, Tyrosinase. Put plainly: Inhibition of mushroom tyrosinase.
Turning to `O=c1cc(CO)oc(CN2CCN(Cc3ccc(Cl)c(Cl)c3)CC2)c1O`, the IC50 worked out at 86200 nM.
Turning to `O=c1cc(Cn2cc(COc3ccc4ccccc4c3)nn2)occ1O`, the half-maximal inhibitory concentration (IC50) came out at 60 nM.
For the molecule `O=c1cc(Cn2cc(COc3cccc4ccccc34)nn2)occ1O`, the IC50 is 60 nM.

A further test has as its system Mycobacterium tuberculosis. Put plainly: Antitubercular activity against Mycobacterium tuberculosis H37Rv ATCC 27294. Type of test: functional.
Take `O=C(C1CCCCC1)N1CCN(Cc2oc(CCl)cc(=O)c2O)CC1`: the MIC turned out to be 4 µg/mL (≈ 10.8 µM).

The next test addresses T2, Tyrosinase. Put plainly: Inhibition of mushroom tyrosinase diphenolase activity.
For the molecule `CCCCCCCCn1cc(O)c(=O)cc1/C=N/OCC`, the IC50 came out at 7990 nM.
On the same count and under the same terms, then `CCCCCCCCn1cc(O)c(=O)cc1COC(=O)[C@@H](N)Cc1ccccc1`, with 4000 nM.
